Reference: patent publication US11053246B2, “Substituted tricyclic compounds as FGFR inhibitors” (Incyte Corporation, priority 2012, dated 2021)

Experiments:
Type in all cases: biochemical
[1] = molecular target: FGFR1 (Homo sapiens (Human), UniProt P11362); assay: FGFR Enzymatic Assay (FRET peptide phosphorylation), FGFR1; conditions: FGFR1 enzyme 0.02 nM, ATP 210 μM, 25° C., 1 hr
[2] = molecular target: FGFR2 (Homo sapiens (Human), UniProt P21802); assay: FGFR Enzymatic Assay (FRET peptide phosphorylation), FGFR2; conditions: FGFR2 enzyme 0.01 nM, ATP 100 μM, 25° C., 1 hr
Protocol: (§1) The inhibitor potency of the exemplified compounds was measured in an enzyme assay that measures peptide phosphorylation using FRET measurements to detect product formation. Inhibitors were serially diluted in DMSO and a volume of 0.5 μL was transferred to the wells of a 384-well plate. For FGFR3, a 10 μL volume of FGFR3 enzyme (Millipore) diluted in assay buffer (50 mM HEPES, 10 mM MgCl2, 1 mM EGTA, 0.01% Tween-20, 5 mM DTT, pH 7.5) was added to the plate and pre-incubated for 5-10 minutes. Appropriate controls (enzyme blank and enzyme with no inhibitor) were included on the plate. […] The plate was incubated at 25° C. for 1 hr. […] The plate was allowed to equilibrate for ˜1 hr before scanning the wells on a PheraStar plate reader (BMG Labtech).
The enzymes were purchased from Millipore or Invitrogen.
(§2) GraphPad prism3 was used to analyze the data. The IC50 values were derived by fitting the data to the equation for a sigmoidal dose-response with a variable slope. Y=Bottom+(Top−Bottom)/(1+10^((Log IC50−X)*HillSlope)) where X is the logarithm of concentration and Y is the response.

[3] = molecular target: FGFR3 (Homo sapiens (Human), UniProt P22607); assay: FGFR Enzymatic Assay (FRET peptide phosphorylation), FGFR3; conditions: FGFR3 enzyme (Millipore), ATP 140 μM, 25° C., 1 hr
Protocol: as §1, §2

FGFR2, sequence (P21802 22-821): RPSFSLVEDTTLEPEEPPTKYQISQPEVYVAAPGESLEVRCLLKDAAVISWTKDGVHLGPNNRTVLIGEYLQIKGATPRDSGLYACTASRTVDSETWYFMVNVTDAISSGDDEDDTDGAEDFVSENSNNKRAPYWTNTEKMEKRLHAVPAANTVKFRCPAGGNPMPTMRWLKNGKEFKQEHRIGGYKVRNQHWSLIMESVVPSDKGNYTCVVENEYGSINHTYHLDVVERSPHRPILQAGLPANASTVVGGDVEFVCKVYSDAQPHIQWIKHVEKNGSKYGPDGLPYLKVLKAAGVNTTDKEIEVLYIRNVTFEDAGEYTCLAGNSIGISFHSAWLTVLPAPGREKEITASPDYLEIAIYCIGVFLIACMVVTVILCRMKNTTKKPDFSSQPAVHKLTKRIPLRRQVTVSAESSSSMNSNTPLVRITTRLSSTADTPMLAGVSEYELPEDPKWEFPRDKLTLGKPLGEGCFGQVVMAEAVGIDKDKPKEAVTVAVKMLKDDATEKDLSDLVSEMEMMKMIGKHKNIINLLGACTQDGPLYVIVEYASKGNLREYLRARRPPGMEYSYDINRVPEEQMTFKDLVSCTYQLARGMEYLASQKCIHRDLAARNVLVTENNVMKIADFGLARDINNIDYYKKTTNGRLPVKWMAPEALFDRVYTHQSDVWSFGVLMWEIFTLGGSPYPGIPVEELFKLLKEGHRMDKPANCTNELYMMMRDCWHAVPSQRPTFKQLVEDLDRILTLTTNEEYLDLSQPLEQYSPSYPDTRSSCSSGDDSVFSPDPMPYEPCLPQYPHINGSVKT
FGFR1, sequence (P11362 22-822): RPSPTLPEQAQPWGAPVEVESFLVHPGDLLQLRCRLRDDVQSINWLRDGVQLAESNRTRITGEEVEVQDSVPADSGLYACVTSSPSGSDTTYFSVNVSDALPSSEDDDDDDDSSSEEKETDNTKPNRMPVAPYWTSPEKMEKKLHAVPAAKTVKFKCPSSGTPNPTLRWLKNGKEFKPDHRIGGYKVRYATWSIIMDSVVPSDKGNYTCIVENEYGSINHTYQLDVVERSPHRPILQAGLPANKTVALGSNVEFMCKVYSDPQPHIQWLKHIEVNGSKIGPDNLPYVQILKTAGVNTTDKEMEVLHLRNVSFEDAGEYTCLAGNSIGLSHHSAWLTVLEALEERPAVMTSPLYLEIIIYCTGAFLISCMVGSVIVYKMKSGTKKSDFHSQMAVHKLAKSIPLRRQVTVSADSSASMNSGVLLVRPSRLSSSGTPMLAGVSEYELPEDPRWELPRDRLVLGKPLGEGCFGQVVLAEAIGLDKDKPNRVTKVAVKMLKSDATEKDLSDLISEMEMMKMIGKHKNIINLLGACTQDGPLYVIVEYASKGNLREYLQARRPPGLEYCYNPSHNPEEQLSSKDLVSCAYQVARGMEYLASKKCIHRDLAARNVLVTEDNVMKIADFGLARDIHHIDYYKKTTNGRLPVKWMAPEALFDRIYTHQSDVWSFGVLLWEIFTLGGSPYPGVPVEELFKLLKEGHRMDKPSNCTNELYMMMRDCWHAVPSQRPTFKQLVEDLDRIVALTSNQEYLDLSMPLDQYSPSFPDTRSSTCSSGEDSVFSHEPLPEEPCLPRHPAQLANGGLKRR
FGFR3, sequence (P22607 23-806): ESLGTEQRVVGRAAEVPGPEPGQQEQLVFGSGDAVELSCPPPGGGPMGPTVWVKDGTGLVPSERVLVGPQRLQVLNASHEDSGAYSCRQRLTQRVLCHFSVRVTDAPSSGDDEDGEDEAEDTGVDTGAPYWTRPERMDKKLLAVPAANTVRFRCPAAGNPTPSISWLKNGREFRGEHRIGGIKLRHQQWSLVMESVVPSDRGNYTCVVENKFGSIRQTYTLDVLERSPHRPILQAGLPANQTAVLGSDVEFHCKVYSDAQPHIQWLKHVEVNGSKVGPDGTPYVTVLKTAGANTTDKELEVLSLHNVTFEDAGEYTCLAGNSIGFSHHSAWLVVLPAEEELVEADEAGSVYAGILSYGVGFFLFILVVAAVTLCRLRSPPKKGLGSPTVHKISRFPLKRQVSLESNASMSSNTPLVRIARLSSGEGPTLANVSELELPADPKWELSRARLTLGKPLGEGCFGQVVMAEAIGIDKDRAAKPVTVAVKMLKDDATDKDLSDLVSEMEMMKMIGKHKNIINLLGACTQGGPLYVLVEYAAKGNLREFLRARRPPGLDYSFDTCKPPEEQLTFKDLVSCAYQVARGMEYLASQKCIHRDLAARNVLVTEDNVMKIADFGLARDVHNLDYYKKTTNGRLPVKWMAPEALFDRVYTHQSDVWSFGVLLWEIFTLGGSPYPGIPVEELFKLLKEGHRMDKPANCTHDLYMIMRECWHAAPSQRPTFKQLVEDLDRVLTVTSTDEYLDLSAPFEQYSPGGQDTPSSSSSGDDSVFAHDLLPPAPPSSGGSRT

- IC50 [1]: < 100 nM
- IC50 [2]: < 100 nM
- IC50 [3]: < 100 nM
SMILES: CCN1C(=O)N(c2c(F)c(OC)cc(OC)c2Cl)Cc2cnc3c(c21)CC(=O)N3 [Example 63, 3-(2-chloro-6-fluoro-3,5-dimethoxyphenyl)-1-ethyl-3,4,7,9-tetrahydro-1H-pyrrolo[3′,2′:5,6]pyrido[4,3-d]pyrimidine-2,8-dione]
